{"source": "patent US9795567B2", "about": "“Immediate release formulations and dosage forms of gamma-hydroxybutyrate” (Jazz Pharmaceuticals, Inc., priority 2008, dated 2017)", "key": {"[1]": {"assay": "Plasma pharmacokinetics of sodium oxybate given orally (background and definition statements)", "conditions": "human, oral"}, "[2]": {"system": "patients with hyperkinetic movement disorders including ethanol responsive myoclonus and essential tremor", "conditions": "five patients, open label; cited from earlier work"}, "[3]": {"conditions": "in man, given orally; cited from earlier work"}}, "data": [{"smiles": "O=C(O)CCCO", "note": "[sodium oxybate, Sodium gamma-hydroxybutyrate]", "values": [{"measurement": "Tmax", "setting": "[1]", "result": "30 to 150", "unit": "min"}, {"measurement": "half-life", "setting": "[1]", "result": "24 to 54", "unit": "min"}, {"measurement": "blinded ratings of ethanol responsive myoclonus and tremor", "setting": "[2]", "result": "dose-dependent improvements"}, {"measurement": "tolerability", "setting": "[2]", "result": "tolerated at doses that provided clinical benefit"}, {"measurement": "plasma half-life", "setting": "[3]", "result": "about 45 minutes"}]}]}
